Experimental data taken from PubChem BioAssay (NCI).
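Growth conditions: 96-well plates. Treatment: test compound, 48 hours, 5 concentrations. Analysis: linear interpolation between bracketing concentrations; unreached endpoints set to highest concentration. TGI: concentration producing complete growth inhibition.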

Experiments:
Test in all cases: inhibition of tumour cell growth, NCI panel, 48 h
[1] = tested on: A549 NSCLC
[2] = tested on: HOP-92 NSCLC
[3] = tested on: 786-0 renal
[4] = tested on: NCI-H226 lung
[5] = tested on: ACHN renal
[6] = tested on: HT29 colon
[7] = tested on: COLO 205 colon
[8] = tested on: HCT-116 colon
[9] = tested on: SK-MEL-2 melanoma
[10] = tested on: SF-539 CNS
[11] = tested on: SK-MEL-28 melanoma
[12] = tested on: NCI/ADR-RES ovarian
[13] = tested on: LOX IMVI melanoma
[14] = tested on: SF-295 CNS
[15] = tested on: SK-OV-3 ovarian
[16] = tested on: SNB-75 CNS
[17] = tested on: HCC-2998 colon
[18] = tested on: RPMI-8226 leukemia
[19] = tested on: HOP-62 NSCLC
[20] = tested on: A498 renal
[21] = tested on: RXF 393 renal
[22] = tested on: NCI-H460 lung
[23] = tested on: NCI-H522 lung
[24] = tested on: IGROV1 ovarian
[25] = tested on: OVCAR-4 ovarian
[26] = tested on: KM12 colon
[27] = tested on: OVCAR-3 ovarian
[28] = tested on: OVCAR-5 ovarian
[29] = tested on: SN12C renal
[30] = tested on: HS 578T breast
[31] = tested on: MALME-3M melanoma
[32] = tested on: K-562 leukemia
[33] = tested on: MOLT-4 leukemia
[34] = tested on: OVCAR-8 ovarian
[35] = tested on: HL-60(TB) leukemia
[36] = tested on: CAKI-1 renal
[37] = tested on: EKVX NSCLC
[38] = tested on: MDA-MB-435
[39] = tested on: BT-549 breast
[40] = tested on: PC-3 prostate
[41] = tested on: MCF7 breast
[42] = tested on: NCI-H23 lung
[43] = tested on: U251 CNS
[44] = tested on: SF-268 CNS
[45] = tested on: UACC-62 melanoma
[46] = tested on: TK-10 renal
[47] = tested on: CCRF-CEM leukemia
[48] = tested on: HCT-15 colon
[49] = tested on: UACC-257 melanoma
[50] = tested on: UO-31 renal
[51] = tested on: SK-MEL-5 melanoma
[52] = tested on: T-47D breast
[53] = tested on: MDA-N
[54] = tested on: SW-620 colon
[55] = tested on: DU-145 prostate
[56] = tested on: M14 melanoma
[57] = tested on: MDA-MB-231 breast
[58] = tested on: SNB-19 CNS

`C=CS(=O)(=O)c1c2cc(OC)ccc2nc2ccc(OC)cc12` gave a TGI [1] of over 47.1 µM, a TGI [2] of over 51.1 µM and a TGI [3] of 7.82 µM. The TGI [4] was 35.1 µM, the TGI [5] was 24.5 µM and the TGI [6] was 10.7 µM. It also gave a TGI [7] of over 42.3 µM, a TGI [8] of 5.02 µM and a TGI [9] of 51.3 µM. The TGI [10] was over 21.2 µM, the TGI [11] was 45.6 µM and the TGI [12] was 76.2 µM. For the same compound, the TGI [13] was 7.16 µM, the TGI [14] was 32.3 µM and the TGI [15] was 33.1 µM. The TGI [16] was 26.3 µM, the TGI [17] was 24.8 µM and the TGI [18] was 7.28 µM. The TGI [19] was 32.8 µM, the TGI [20] was 27.7 µM and the TGI [21] was 18.4 µM. It also gave a TGI [22] of over 44.3 µM, a TGI [23] of 3.74 µM and a TGI [24] of 12.5 µM. It also gave a TGI [25] of 30 µM, a TGI [26] of 28.8 µM and a TGI [27] of 15.8 µM. It also gave a TGI [28] of over 36.9 µM, a TGI [29] of 8.21 µM and a TGI [30] of 11.9 µM. For the same compound, the TGI [31] was 4.89 µM, the TGI [32] was over 23.4 µM and the TGI [33] was over 100 µM. It also gave a TGI [34] of 15.4 µM, a TGI [35] of over 100 µM and a TGI [36] of 14.9 µM. It also gave a TGI [37] of 21.1 µM, a TGI [38] of 22.7 µM and a TGI [39] of 22.4 µM. It also gave a TGI [40] of 23.3 µM, a TGI [41] of over 25.7 µM and a TGI [42] of 28.2 µM. The TGI [43] was over 52.6 µM, the TGI [44] was 33.4 µM and the TGI [45] was 31.3 µM. It also gave a TGI [46] of 23.5 µM, a TGI [47] of over 23.4 µM and a TGI [48] of over 33.9 µM. It also gave a TGI [49] of 24 µM, a TGI [50] of over 27.4 µM and a TGI [51] of 27 µM. For the same compound, the TGI [52] was 35.5 µM, the TGI [53] was 11.3 µM and the TGI [54] was over 20.7 µM. It also gave a TGI [55] of 19.8 µM, a TGI [56] of over 49.7 µM and a TGI [57] of 50.7 µM. For the same compound, the TGI [58] was 45.1 µM.
